Reference: the OPERA property sets (Mansouri et al. 2018)
≈ marks a conversion by molar mass, not a printed value.

conditions: 20 °C

Compared with `COc1c(C(=O)O)oc2ccccc12`, `O=C(O)CCCCCCCCCCO` is 1.5-fold higher in solubility: 1.3 mM (≈ 250 µg/mL) for the first, 1.98 mM (≈ 400 µg/mL) for the second.

same assay, conditions: 21 °C

Compared with `O=C(O)c1cc(Br)ccc1Cl`, `CCCCOc1cc(C(=O)NCCN(CC)CC)c2ccccc2n1` is 92-fold lower in solubility: 11.2 mM (≈ 2630 µg/mL) for the first, 0.122 mM (≈ 42 µg/mL) for the second.

same assay, conditions: 22 °C

Compared with `COc1cc2nccnc2c(N)c1OC`, `Nc1c(Br)cc(Br)c(S(=O)(=O)O)c1Br` is 17-fold higher in solubility: 19.5 mM (≈ 4000 µg/mL) for the first, 324 mM (≈ 133000 µg/mL) for the second.

same assay, conditions: 23 °C

Work on `O=S(=O)(c1ccccc1O)c1ccccc1O` yielded a solubility of 0.48 mM (≈ 120 µg/mL).

same assay, conditions: 24 °C

Going from `c1ccc(CNCCNCc2ccccc2)cc1` to `O=NC1=C(NO)CCC1`, the solubility falls from 16.3 mM (≈ 3930 µg/mL) to 10.1 mM (≈ 1300 µg/mL) (1.6-fold).

same assay, conditions: 25 °C

`Sc1nc2ccccc2o1` and `CC(C)C1OC(=O)c2ccccc21` (stereo unspecified) are within 1.5-fold of each other in solubility: 6.61 mM (≈ 1000 µg/mL) for the first, 5.54 mM (≈ 976 µg/mL) for the second.

First: CCOc1ccccc1C=CC(=O)[O-]
Second: CCN(C(N)=O)c1ccccc1C
The solubility of the first is 520-fold lower: 1.19 mM for the first, 617 mM (≈ 110000 µg/mL) for the second.

First: O=Cc1ccc(O)c(C(=O)O)c1
Second: O=C(O)Cc1cc(O)ccc1O
The solubility of the first is 2200-fold lower: 2.32 mM (≈ 385 µg/mL) for the first, 5050 mM (≈ 850000 µg/mL) for the second.

First: CCC(=O)Oc1ccc([N+](=O)[O-])cc1
Second: CCOc1ccc(N(C(C)=O)C(C)=O)cc1
The solubility of the first is 88-fold lower: 0.128 mM (≈ 25 µg/mL) for the first, 11.3 mM (≈ 2500 µg/mL) for the second.

Compared with `CCCCOC(=O)C(C)OC(C)=O` (stereo unspecified), `CCCCCOC(=O)C(C)O` (stereo unspecified) is 2.8-fold lower in solubility: 176 mM (≈ 33200 µg/mL) for the first, 62.4 mM (≈ 10000 µg/mL) for the second.

First: OCc1cccc(CO)c1
Second: O=C(O)CCCCc1ccccc1
The solubility of the first is 170-fold higher: 585 mM (≈ 80800 µg/mL) for the first, 3.42 mM (≈ 610 µg/mL) for the second.

First: CCCCC(CC)COC(=O)NS(N)(=O)=O (stereo unspecified)
Second: CCCCCCCCOC(=O)C(C)O (stereo unspecified)
The solubility of the first is 13-fold lower: 3.96 mM (≈ 1000 µg/mL) for the first, 53.4 mM (≈ 10800 µg/mL) for the second.

First: Nc1cc([N+](=O)[O-])ccc1I
Second: CC1OC(=O)c2cc([N+](=O)[O-])ccc21 (stereo unspecified)
The solubility of the first is 64-fold lower: 0.0379 mM (≈ 10 µg/mL) for the first, 2.42 mM (≈ 468 µg/mL) for the second.

`CCCC(O)CC(C)C` (stereo unspecified) and `CCCC(C)CC(C)O` (stereo unspecified) are within 1.5-fold of each other in solubility: 12.4 mM (≈ 1610 µg/mL) for the first, 13.2 mM (≈ 1730 µg/mL) for the second.

Going from `CCOC(=O)N1CCN(C(=O)OCC)CC1` to `CCOC(=S)SC(CC(=O)O)C(=O)O` (stereo unspecified), the solubility falls from 187 mM (≈ 43000 µg/mL) to 101 mM (≈ 24100 µg/mL) (1.9-fold).

Going from `CCC/C(=C\C(=O)O)C(=O)O` to `O=C(O)CSCC(=O)O`, the solubility rises from 70.2 mM (≈ 11100 µg/mL) to 2660 mM (≈ 400000 µg/mL) (38-fold).

First: CC(N)C(O)C(=O)O (stereo unspecified)
Second: CO[C@H](C)[C@H](N)C(=O)O (racemic)
The solubility of the first is 7-fold lower: 443 mM (≈ 52800 µg/mL) for the first, 3100 mM (≈ 413000 µg/mL) for the second.

Going from `ON=C1CCCCC1` to `CCC(=NO)C(CC)=NO`, the solubility falls from 159 mM (≈ 18000 µg/mL) to 2.8 mM (≈ 404 µg/mL) (57-fold).

First: NC(=O)c1ccc(S(N)(=O)=O)cc1
Second: NC(=O)Nc1ccc(Br)cc1
The solubility of the first is 4.6-fold lower: 4.99 mM (≈ 1000 µg/mL) for the first, 23.2 mM (≈ 5000 µg/mL) for the second.

First: O=C(CCl)NC(=O)CCl
Second: NC(=O)NCCC(=O)O
The solubility of the first is 27-fold lower: 5.88 mM (≈ 1000 µg/mL) for the first, 158 mM (≈ 20900 µg/mL) for the second.

Compared with `Cc1cc(Cl)cc(Cl)c1O`, `Cc1cc(O)c(Cc2ccccc2)c(C)c1Cl` is 180-fold lower in solubility: 9.04 mM (≈ 1600 µg/mL) for the first, 0.05 mM (≈ 12.3 µg/mL) for the second.

First: CCCCCNC(=O)C(C)O (stereo unspecified)
Second: CCCCCCCCCCNC(=O)C(C)O (stereo unspecified)
The solubility of the first is 950-fold higher: 414 mM (≈ 66000 µg/mL) for the first, 0.436 mM (≈ 100 µg/mL) for the second.

`CCCCCCCCCCCNC(=O)c1cccnc1` and `CCCCCCCCNC(=O)c1cccnc1` are within 1.5-fold of each other in solubility: 0.941 mM (≈ 260 µg/mL) for the first, 0.982 mM (≈ 230 µg/mL) for the second.

Going from `O=CNCC(=O)O` to `CCC(C)[C@@H](NC(C)=O)C(=O)O` (mixture of isomers), the solubility falls from 1850 mM (≈ 191000 µg/mL) to 177 mM (10-fold).

First: NP(N)(=O)c1ccccc1
Second: O=I(=O)c1ccccc1
The solubility of the first is 4.9-fold higher: 71.1 mM (≈ 11100 µg/mL) for the first, 14.4 mM (≈ 3400 µg/mL) for the second.

Compared with `O=C(O)C(S)CCC(S)C(=O)O` (stereo unspecified), `CSCCC(NC(C)=O)C(=O)O` (racemic) is 320-fold higher in solubility: 3.34 mM (≈ 703 µg/mL) for the first, 1070 mM (≈ 205000 µg/mL) for the second.

Going from `CCOP(=O)(OCC)C(Cl)(Cl)Cl` to `CCOP(=O)(OCC)OCC(C)C`, the solubility rises from 17.6 mM (≈ 4500 µg/mL) to 66.6 mM (≈ 14000 µg/mL) (3.8-fold).

Compared with `CN(C)c1cccc(S(=O)(=O)O)c1`, `COS(=O)(=O)c1ccccc1` is 110-fold lower in solubility: 1990 mM (≈ 400000 µg/mL) for the first, 18.1 mM (≈ 3120 µg/mL) for the second.

Compared with `CCCCCCCCOCCO`, `CCCCOP(=O)(CCCC)OCCCC` is 3.8-fold lower in solubility: 7.5 mM (≈ 1310 µg/mL) for the first, 2 mM (≈ 500 µg/mL) for the second.

Going from `N#CI` to `CC(NCCC#N)C(=O)O` (stereo unspecified), the solubility rises from 233 mM (≈ 35600 µg/mL) to 985 mM (≈ 140000 µg/mL) (4.2-fold).

`CC(=O)N[C@@H](CC(C)C)C(=O)O` and `CC(=O)OC[C@@H](O)[C@@H](OC(C)=O)[C@H](OC(C)=O)[C@H](C=O)OC(C)=O` are within 1.5-fold of each other in solubility: 46.8 mM (≈ 8100 µg/mL) for the first, 44.2 mM (≈ 15400 µg/mL) for the second.

First: CCOc1nc(OCC)nc(OCC)n1
Second: Cc1cc(C)c(C)cn1
The solubility of the first is 5-fold lower: 32.8 mM (≈ 7000 µg/mL) for the first, 165 mM (≈ 20000 µg/mL) for the second.

Going from `O=C(O)c1ccc([N+](=O)[O-])c2cccnc12` to `O=C(O)c1ccc2ncccc2c1`, the solubility rises from 0.683 mM (≈ 149 µg/mL) to 900 mM (≈ 156000 µg/mL) (1300-fold).

Compared with `Cc1[nH]c(=O)[nH]c(=O)c1CC(=O)O`, `CC1OC(=O)c2cc(N)ccc21` (stereo unspecified) is 3.3-fold higher in solubility: 4.89 mM (≈ 900 µg/mL) for the first, 16.3 mM (≈ 2650 µg/mL) for the second.

Compared with `CC(C(=O)O)N(CCC#N)CCC#N` (stereo unspecified), `CCCCOP(=O)(O)OCCCC` is 8.1-fold lower in solubility: 666 mM (≈ 130000 µg/mL) for the first, 81.8 mM (≈ 17200 µg/mL) for the second.

Going from `CC(=O)OOC(=O)c1ccccc1` to `O=C(NNC(=O)c1ccccc1)c1ccccc1`, the solubility rises from 3.55 mM (≈ 639 µg/mL) to 25.8 mM (≈ 6200 µg/mL) (7.3-fold).

Going from `C[C@@H](N)C(C)(C)C` to `C[Si](C)(C)CCCN`, the solubility falls from 9690 mM (≈ 980000 µg/mL) to 11.2 mM (≈ 1470 µg/mL) (870-fold).

First: O=C1OCc2ccc(Cl)cc21
Second: Oc1cnn(-c2ccccc2)c1
The solubility of the first is 3.3-fold lower: 3.3 mM (≈ 556 µg/mL) for the first, 10.9 mM (≈ 1750 µg/mL) for the second.

same assay, conditions: 26 °C

Going from `O=C(S)CCCCC(=O)S` to `CSCCC(C(=O)O)N(CCC#N)CCC#N` (racemic), the solubility rises from 18.5 mM (≈ 3300 µg/mL) to 47 mM (≈ 12000 µg/mL) (2.5-fold).

same assay, conditions: 28 °C

Molecule `CC(NC(N)=O)NC(N)=O` has a solubility of 256 mM (≈ 37400 µg/mL).

same assay, conditions: 30 °C

Going from `CCN(CC)C(C#N)c1ccccc1` (stereo unspecified) to `CCc1ccccc1NC(C)=O`, the solubility falls from 106 mM (≈ 20000 µg/mL) to 25.7 mM (≈ 4190 µg/mL) (4.1-fold).

First: COC(C)C(C)Cl (stereo unspecified)
Second: CCn1cnc2c1c(=O)n(C)c(=O)n2C
The solubility of the first is 18-fold lower: 10 mM (≈ 1230 µg/mL) for the first, 176 mM (≈ 36700 µg/mL) for the second.

Going from `CCCOC(=O)c1ccc(O)c(I)c1` to `CCc1cccc(C)n1`, the solubility rises from 0.206 mM (≈ 63 µg/mL) to 150 mM (≈ 18200 µg/mL) (730-fold).

Compared with `O=C(O)c1ccccc1C(=O)c1ccc(Br)cc1`, `CCn1c(=O)c2c(ncn2C)n(C)c1=O` is 190-fold higher in solubility: 0.983 mM (≈ 300 µg/mL) for the first, 191 mM (≈ 39800 µg/mL) for the second.
